For experiment [1], the system named is Ramos B-Cell Line Stimulated with IL-4. Put plainly: Assay for Ramos B-Cell Line Stimulated with IL-4 (CD23 upregulation, FACS; Example 2). The experiment is classed as cell-based. The conditions noted are these: human Ramos B cells, IL-4 50 units/mL for 20-24 hours, anti-CD23-PE. From the text:
One means of assaying for such inhibition is detection of the effect of the 2,4-pyrimidinediamine compounds on the upregulation of downstream gene products. In the Ramos/IL4 assay, B-cells are stimulated with the cytokine Interleukin-4 (IL-4) leading to the activation of the JAK/Stat pathway through phosphorylation of the JAK family kinases, JAK1 and JAK3, which in turn phosphorylate and activate the transcription factor Stat-6. […] To study the effect of inhibitors (e.g., the 2,4-substituted pyrimindinediamine compounds described herein) on the JAK1 and JAK3 kinases, human Ramos B cells are stimulated with human IL-4. 20 to 24 hours post stimulation, cells are stained for upregulation of CD23 and analyzed using flow cytometry (FACS). […] An exemplary assay of this type is described in greater detail in Example 2.
B-cells stimulated with cytokine Interleukin-4 (IL-4) activate the JAK/Stat pathway through phosphorylation of the JAK family kinases, JAK-1 and JAK-3, which in turn phosphorylate and activate the transcription factor Stat-6. […] To study the effect of inhibitors on the JAK family kinases, human Ramos B cells are stimulated with human IL-4.
The Ramos B-cell line was acquired from ATCC (ATCC Catalog No. CRL-1596). The cells were cultured in RPMI 1640 (Cellgro, MediaTech, Inc., Herndon, Va., Cat No. 10-040-CM) with 10% fetal bovine serum (FBS), heat inactivated (JRH Biosciences, Inc, Lenexa, Kans., Cat No. 12106-500M) according to ATCC propagation protocol. Cells were maintained at a density of 3.5×10^5. The day before the experiment, Ramos B-cells were diluted to 3.5×10^5 cells/mL to ensure that they were in a logarithmic growth phase.
Cells were spun down and suspended in RPMI with 5% serum. 5×10^4 cells were used per point in a 96-well tissue culture plate. Cells were pre-incubated with compound or DMSO (Sigma-Aldrich, St. Louis, Mo., Cat No. D2650) vehicle control for 1 hour in a 37° C. incubator.
Cells were then stimulated with IL-4 (Peprotech Inc., Rocky Hill, N.J., Cat No. 200-04) for a final concentration of 50 units/mL for 20-24 hours. Cells were then spun down and stained with anti-CD23-PE (BD Pharmingen, San Diego, Calif., Cat No. 555711) and analyzed by FACS. Detection was performed using a BD LSR I System Flow Cytometer, purchased from Becton Dickinson Biosciences of San Jose, Calif.

For a further experiment, the system named is BaF3 V617F cells; UKE-1. Kind of experiment: Proliferation Assay (Cell Titer-Glo; Example 7). It counts as cell-based. The conditions noted are these: proliferation 72 hours, inhibit JAK2 activity, cell line (BaF3 V617F or UKE-1) not stated. The method, boiled down: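 Proliferation IC50s reflect 72 h compound exposure at 37 °C, read by Cell Titer-Glo luminescence. Compound was serially diluted 3-fold from a 5 mM DMSO stock and added as a 2× solution; BaF3 V617F cells were grown in RPMI/10% FBS, UKE-1 in Iscove's DMEM with FBS, equine serum and hydrocortisone.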

Consider `Cc1cnc(Nc2ccc(C#N)cc2)nc1Nc1ccc(CN(C)S(=O)(=O)C2CC2)cc1` [II-27, N2-(4-cyano)phenyl-N4-[4-(N-cyclopropylsulfonyl-N-methyl)aminomethyl]phenyl-5-methyl-2,4-pyrimidinediamine], for which, in experiment [1], half-maximal inhibition (IC50) was put at 89200 nM.

In the case of `NS(=O)(=O)c1cccc(Nc2nc(Nc3ccc(OCc4ccccn4)cc3)ncc2C(F)(F)F)c1` [I-12, N4-(3-Aminosulfonylphenyl)-N2-[4-(2-pyridinyl)methyleneoxyphenyl]-5-trifluoromethyl-2,4-pyrimidinediamine], the concentration for half-maximal inhibition (IC50) in experiment [1] came out at 1110 nM.

Take `Cc1cnc(Nc2ccc3[nH]c(C(F)(F)F)nc3c2)nc1Nc1ccc(CNS(=O)(=O)C2CC2)cc1` [IV-2, N4-(4-cyclopropylsulfonylaminomethyl)phenyl-5-methyl-N2-(2-trifluoromethylbenzoimidazol-5-yl)-2,4-pyrimidinediamine]: the midpoint of inhibition in experiment [1], the IC50, lay at 44 nM.

In experiment [1], `Cc1cnc(Nc2cccc(C(N)=O)c2)nc1Nc1cccc(CNS(=O)(=O)C2CC2)c1` [II-24, N2-(3-aminocarbonyl)phenyl-N4-(3-cyclopropylsulfonylaminomethyl)phenyl-5-methyl-2,4-pyrimidinediamine] had an IC50 of 280 nM.

The molecule `C#CCOc1ccc(Nc2ncc(C(F)(F)F)c(Nc3ccc(C)c(S(N)(=O)=O)c3)n2)cc1` [I-3, N4-(3-Aminosulfonyl-4-methylphenyl)-N2-[4-(prop-2-ynyloxy)phenyl]-5-trifluoromethyl-2,4-pyrimidinediamine] registered an IC50 in experiment [1] of 153 nM.

For the molecule `CS(=O)(=O)N1CCc2cc(Nc3nc(Nc4ccc5nc(C(F)(F)F)[nH]c5c4)ncc3F)ccc21` [VIII-4, 5-Fluoro-N4-[(1-methylsulfonyl)indolin-5-yl]-N2-(2-trifluoromethylbenzimidazol-5-yl)-2,4-pyrimidinediamine], in experiment [1], the IC50 worked out at 242 nM.

As for `C#CCNS(=O)(=O)c1cccc(Nc2nc(Nc3cc(C)c(OC)c(C)c3)ncc2F)c1` [I-4, N2-(3,5-Dimethyl-4-methoxyphenyl)-5-fluoro-N4-[3-(prop-2-ynylaminosulfonyl)phenyl]-2,4-pyrimidinediamine], the IC50 in experiment [1] turned out to be 95.5 nM.

`Cc1cnc(Nc2cccc(C(N)=O)c2)nc1Nc1ccc(CN(C)S(=O)(=O)C2CC2)cc1` [II-20, N2-(3-aminocarbonyl)phenyl-N4-[4-(N-cyclopropylsulfonyl-N-methyl)aminomethyl]phenyl-5-methyl-2,4-pyrimidinediamine]: in experiment [1], half-maximal inhibition (IC50) required 505 nM.

In experiment [1], `Cc1cnc(Nc2ccc3[nH]cnc3c2)nc1Nc1ccc(CNS(=O)(=O)C2CC2)cc1` [IV-1, N2-(benzoimidazol-5-yl)-N4-(4-cyclopropylsulfonylaminomethyl)phenyl-5-methyl-2,4-pyrimidinediamine] showed an IC50 of 74.7 nM.

`COc1c(C)cc(Nc2ncc(C)c(Nc3ccc4c(c3)[C@H](NS(C)(=O)=O)CC4)n2)cc1C` [V-10]: the IC50 in the experiment on BaF3 V617F cells; UKE-1 is 673 nM.

Molecule `CCCOc1c(C)cc(Nc2ncc(Cl)c(Nc3ccc(CNS(=O)(=O)C4CC4)cc3)n2)cc1C` [II-221, 5-Chloro-N4-[4-(N-cyclopropylsulfonylamino)methylphenyl]-N2-[3,5-dimethyl-4-(1-propoxy)phenyl]-2,4-pyrimidinediamine] had an IC50 in the experiment with BaF3 V617F cells; UKE-1 of 238 nM.

`Cc1cnc(Nc2ccc(N3CCN(C)CC3)cc2)nc1Nc1ccc(CCNS(=O)(=O)C2CC2)cc1` [II-67] yielded an IC50 with BaF3 V617F cells; UKE-1 of 717 nM.

In the experiment with BaF3 V617F cells; UKE-1, `COc1c(C)cc(Nc2ncc(C)c(Nc3ccc(CNS(=O)(=O)NC4CC4)cc3)n2)cc1C` [II-162, N4-[4-((N-Cyclopropylamino)sulfonylamino)methylphenyl]-N2-(3,5-dimethyl-4-methoxyphenyl)-5-methyl-2,4-pyrimidinediamine] had an IC50 of 134 nM.

`Cc1cnc(Nc2ccc(N3CCN(C)CC3)nc2)nc1Nc1ccc(CNS(=O)(=O)NC2CC2)cc1` [II-173, N4-[4-((N-Cyclopropylamino)sulfonylamino)methylphenyl]-5-methyl-N2-[6-(4-methyl-1-piperazinyl)-3-pyridinyl]-2,4-pyrimidinediamine] returned an IC50 with BaF3 V617F cells; UKE-1 of 2340 nM.

On to `CCNS(=O)(=O)NCc1cccc(Nc2nc(Nc3ccc(N4CCN(C)CC4)cc3)ncc2C)c1` [II-135, N4-[(3-(Ethylamino)sulfonylamino)methylphenyl]-5-methyl-N2-[4-(4-methyl-1-piperazinyl)phenyl]-2,4-pyrimidinediamine], for which half-maximal inhibition with BaF3 V617F cells; UKE-1 (IC50) required 267 nM.

With `Cc1cc(Nc2ncc(Cl)c(Nc3cccc(S(=O)(=O)NC(C)(C)C)c3)n2)ccc1N1C[C@@H]2C[C@H]1CN2C` [I-22, 5-Chloro-N4-[(3-(1,1-dimethylethylamino)sulfonyl)phenyl]-N2-[3-methyl-4-[(1S,4S)-5-methyl-2,5-diazabicyclo[2.2.1]hept-2-yl]phenyl]-2,4-pyrimidinediamine], the IC50 in the experiment with BaF3 V617F cells; UKE-1 stood at 549 nM.

As to `CCNS(=O)(=O)NCc1cccc(Nc2nc(Nc3ccc(N4CCN(C)CC4)c(C)c3)ncc2Cl)c1` [II-132, 5-Chloro-N4-[(3-(ethylamino)sulfonylamino)methylphenyl]-N2-[3-methyl-4-(4-methyl-1-piperazinyl)phenyl]-2,4-pyrimidinediamine], the IC50 in the experiment with BaF3 V617F cells; UKE-1 is 1630 nM.

`COc1cc(Nc2ncc(Cl)c(Nc3ccc(CNS(=O)(=O)NC4CC4)cc3)n2)cc(C)c1OC` [II-158, 5-Chloro-N4-[4-((N-cyclopropylamino)sulfonylamino)methylphenyl]-N2-(3,4-dimethoxy-5-methylphenyl)-2,4-pyrimidinediamine] showed an IC50 with BaF3 V617F cells; UKE-1 of 158 nM.

`CCNS(=O)(=O)NCc1ccc(Nc2nc(Nc3cc(Cl)c(OC)c(Cl)c3)ncc2C)cc1` [II-119, N2-[3,5-Dichloro-4-methoxyphenyl]-N4-[(4-(ethylamino)sulfonylamino)methylphenyl]-5-methyl-2,4-pyrimidinediamine] displayed an IC50 in the experiment with BaF3 V617F cells; UKE-1 of 1360 nM.

`CN1CCN(c2ccncc2Nc2ncc(Cl)c(Nc3ccc4c(c3)S(=O)(=O)NCC4)n2)CC1` [VII-3, 5-Chloro-N4-[3,4-dihydro-1,1-dioxide-2H-1,2-benzothiazin-7-yl]-N2-[4-(N-methylpiperizin-4-yl)pyridine-3-yl]-2,4-pyrimidinediamine]: in the experiment on BaF3 V617F cells; UKE-1, the IC50 was found to be 1170 nM.

In the experiment on BaF3 V617F cells; UKE-1, “5-Chloro-N4-[(4-(dimethylamino)sulfonylamino)methylphenyl]-N2-[3,4,5-trimethoxyphenyl)-2,4-pyrimidinediamine [II-95]” showed a concentration for half-maximal inhibition (IC50) of 250 nM.

Molecule `CCNS(=O)(=O)NCc1ccc(Nc2nc(Nc3cc(C)c(OC)c(Cl)c3)ncc2Cl)cc1` [II-110, 5-Chloro-N2-(3-chloro-4-methoxy-5-methylphenyl)-N4-[(4-(ethylamino)sulfonylamino)methylphenyl]-2,4-pyrimidinediamine] showed an IC50 in the experiment on BaF3 V617F cells; UKE-1 of 601 nM.

`COc1cc(Nc2ncc(C)c(Nc3ccc4c(c3)C(NS(=O)(=O)C3CC3)CC4)n2)cc(OC)c1OC` (racemic) [V-3] had an IC50 in the experiment on BaF3 V617F cells; UKE-1 of 1640 nM.

Regarding “5-Chloro-N4-[4-(N-cyclopropylsulfonylamino)methylphenyl]-N2-[2,4-dimethyl-5-chlorophenyl]-2,4-pyrimidinediamine [II-213]”, the concentration for half-maximal inhibition (IC50) in the experiment on BaF3 V617F cells; UKE-1 is 2490 nM.

On to `CN1CCC(c2ccc(Nc3ncc(Cl)c(Nc4ccc(CNS(=O)(=O)N(C)C)cc4)n3)cc2)CC1` [II-98, 5-Chloro-N4-[(4-(dimethylamino)sulfonylamino)methylphenyl]-N2-[4-(1-methyl-4-piperidinyl)pheny]-2,4-pyrimidinediamine], for which inhibition with BaF3 V617F cells; UKE-1 was half-maximal at 264 nM (IC50).

In the experiment with BaF3 V617F cells; UKE-1, `CCOc1c(C)cc(Nc2ncc(Cl)c(Nc3ccc(CNS(=O)(=O)NC4CC4)cc3C)n2)cc1C` [II-176, 5-Chloro-N2-(3,5-dimethyl-4-ethoxyphenyl)-N4-[2-methyl-4-((N-cyclopropylamino)sulfonylamino)methylphenyl]-2,4-pyrimidinediamine] showed an IC50 of 190 nM.

Consider `CCOc1cc(Nc2ncc(C)c(Nc3ccc(CNS(=O)(=O)C4CC4)cc3)n2)cc(OC)c1OC` [II-209, 5-Methyl-N4-[4-(N-cyclopropylsulfonylamino)methylphenyl]-N2-[3,4-dimethoxy-5-ethoxyphenyl]-2,4-pyrimidinediamine], for which the IC50 in the experiment on BaF3 V617F cells; UKE-1 amounted to 317 nM.

In turn, `CCNS(=O)(=O)NCc1ccc(Nc2nc(Nc3cc(OC)c(OC)c(OC)c3)ncc2Cl)cc1` [II-112, 5-Chloro-N4-[(4-(ethylamino)sulfonylamino)methylphenyl]-N2-(3,4,5-trimethoxyphenyl)-2,4-pyrimidinediamine] returned an IC50 in the experiment on BaF3 V617F cells; UKE-1 of 431 nM.

Usually IC50 stands for the concentration at which inhibition is half-maximal.
